The text below walks through data of EP0363856A1, “Derivative of coumarin, process for its preparation and its use” (HOECHST AKTIENGESELLSCHAFT, priority 1988, dated 1990).

The target in this assay is T1, Angereicherte γ-Glutamyl-Transpeptidasen (Bacillus subtilis subsp. natto, UniProt P63186).
T1 construct: Angereicherte γ-Glutamyl-Transpeptidasen der in Beispiel 3 genannten Mikroorganismen; endogenous in cells; host or cells: Bacillus subtilis "natto" IFO 3025, enzyme enriched from the culture
T1 sequence (P63186 36-587): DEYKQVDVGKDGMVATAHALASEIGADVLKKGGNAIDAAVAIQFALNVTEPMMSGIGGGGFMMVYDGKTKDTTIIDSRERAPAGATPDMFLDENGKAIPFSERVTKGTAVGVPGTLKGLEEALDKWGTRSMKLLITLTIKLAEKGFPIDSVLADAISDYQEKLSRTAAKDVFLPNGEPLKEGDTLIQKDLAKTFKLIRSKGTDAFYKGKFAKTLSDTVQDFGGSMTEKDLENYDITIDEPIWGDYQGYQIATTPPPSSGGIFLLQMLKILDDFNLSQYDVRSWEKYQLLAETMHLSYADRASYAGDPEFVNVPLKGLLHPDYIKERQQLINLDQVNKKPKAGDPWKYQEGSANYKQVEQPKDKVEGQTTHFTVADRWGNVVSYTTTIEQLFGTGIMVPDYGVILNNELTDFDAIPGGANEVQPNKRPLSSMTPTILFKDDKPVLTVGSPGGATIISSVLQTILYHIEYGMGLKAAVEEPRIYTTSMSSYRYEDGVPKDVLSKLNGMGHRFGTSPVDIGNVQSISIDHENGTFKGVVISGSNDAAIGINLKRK
Description: Incubation of enriched enzyme with cephalosporin substrates (hydrolysis to D-α-Aminoadipinsäure and nucleus). Type of assay: biochemical. The settings on record: enriched enzyme from Bacillus subtilis; hydrolysis to D-α-Aminoadipinsäure and Desacetyl-7ACA or 7ACA. From the text: Angereicherte γ-Glutamyl-Transpeptidasen der in Beispiel 3 genannten Mikroorganismen wurden mit Desacetyl-Cephalosporin C inkubiert. Nur das Enzym aus Bacillus subtilis, welches auch AAA-AMC spaltet, kann Desacetyl-Cephalosporin C und Cephalosporin C zu D-α-Aminoadipinsäure und Desacetyl-7ACA (18 % Umsetzung) bzw. 7ACA (3 % Umsetzung) hydrolysieren.

The structures appear in SMILES notation.

The compound `CC(=O)OCC1=C(C(=O)O)N2C(=O)[C@@H](NC(=O)CCC[C@@H](N)C(=O)O)[C@H]2SC1` [Cephalosporin C] came in with a Umsetzung of 3%.
`N[C@H](CCCC(=O)N[C@@H]1C(=O)N2C(C(=O)O)=C(CO)CS[C@H]12)C(=O)O` [Desacetyl-Cephalosporin C] came in with a Umsetzung of 18%.
